Measured values as given in US20250312462A1, “PAK1 DEGRADERS AND METHODS OF USE THEREOF” (INSTITUTE FOR CANCER RESEARCH D/B/A THE RESEARCH INSTITUTE …, priority 2022, published 2025).

Experiments:
[1] = biological target: ACVR1 (Homo sapiens, UniProt Q04771); experiment: KINOMEscan; details: read-out: Percent Control
Description: (§1) The kinase engagement assay (KINOMEscan®) was performed by DiscoverX assessing binding abilities toward a set of kinases.

[2] = biological target: PKAC-alpha (Homo sapiens, UniProt P17612); experiment: KINOMEscan; details: read-out: Percent Control
Description: as §1

[3] = biological target: PAK2 (Homo sapiens, UniProt Q13177); experiment: PAK2 degradation in MCF7 and OVCAR3 cells, immunoblot; format: cell-based; design: due to their high expression of both PAK1 and PAK2; endogenous in cells; host or cells: MCF7, OVCAR3
Chain of PAK2 (Q13177 whole entry): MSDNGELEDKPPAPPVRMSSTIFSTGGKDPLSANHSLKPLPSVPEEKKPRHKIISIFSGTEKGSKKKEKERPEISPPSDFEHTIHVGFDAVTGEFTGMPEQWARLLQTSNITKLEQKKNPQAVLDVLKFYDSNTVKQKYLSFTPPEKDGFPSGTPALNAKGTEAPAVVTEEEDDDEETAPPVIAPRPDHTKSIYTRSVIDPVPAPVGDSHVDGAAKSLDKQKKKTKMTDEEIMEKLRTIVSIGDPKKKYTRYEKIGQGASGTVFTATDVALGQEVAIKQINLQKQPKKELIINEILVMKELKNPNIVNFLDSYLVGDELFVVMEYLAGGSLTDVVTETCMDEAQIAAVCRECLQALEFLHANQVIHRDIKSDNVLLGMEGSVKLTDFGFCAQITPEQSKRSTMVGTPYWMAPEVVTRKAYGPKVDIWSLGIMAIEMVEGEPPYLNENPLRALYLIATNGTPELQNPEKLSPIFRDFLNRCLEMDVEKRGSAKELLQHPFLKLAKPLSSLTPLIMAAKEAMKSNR
Description: […]. Cells were incubated overnight then treated with various concentrations of Pak degraders alone or together with bortezomib or lenalidomide for 24 hours. Protein lysates were harvested at the times specified.
Cells were washed once in PBS and lysed in RIPA buffer (50 mM Tris-HCl, 150 mM NaCl, 0.25% (w/v) sodium deoxycholate, 1% (w/v) NP-40, pH 7.5) containing protease inhibitor cocktail (Roche) and phosphatase inhibitor cocktail (Roche) for 30 minutes on ice. Cell lysates were obtained by centrifugation at 13,500 rpm for 15 minutes at 4° C. BCA protein assay (Thermo Scientific) was used to determine protein concentration then equal amounts of total proteins were separated by SDS-PAGE (Bio-Rad) and transferred to PVDF membrane (Thermo Scientific) at 100V for 2 hours. Membranes were blocked in 5% (w/v) non-fat dry milk in tris-buffered saline with 0.1% Tween-20 (TBS-T) for 1 hour and incubated with primary antibody at 4° C. for overnight. […]
After verifying that BJG-05-039 retained specificity for PAK1, its degradation activity in cells was characterized. First, the PAK1 degrader was evaluated in the breast cancer cell line MCF7 and the ovarian cancer cell line OVCAR3 due to their high expression of both PAK1 and PAK2 and their known dependence on PAK1 (Prudnikova, et al. (2016) Oncogene 35:2178-2185; Shrestha, et al. (2012) Oncogene 31:3397-3408). […]

[4] = biological target: DDR2 (Homo sapiens, UniProt Q16832); experiment: KINOMEscan; details: read-out: Percent Control
Description: as §1

[5] = biological target: RIPK5 (Homo sapiens, UniProt Q6XUX3); experiment: KINOMEscan; details: read-out: Percent Control
Description: as §1

[6] = biological target: NIM1 (Homo sapiens, UniProt Q8IY84); experiment: KINOMEscan; details: read-out: Percent Control
Chain of NIM1 (Q8IY84 whole entry): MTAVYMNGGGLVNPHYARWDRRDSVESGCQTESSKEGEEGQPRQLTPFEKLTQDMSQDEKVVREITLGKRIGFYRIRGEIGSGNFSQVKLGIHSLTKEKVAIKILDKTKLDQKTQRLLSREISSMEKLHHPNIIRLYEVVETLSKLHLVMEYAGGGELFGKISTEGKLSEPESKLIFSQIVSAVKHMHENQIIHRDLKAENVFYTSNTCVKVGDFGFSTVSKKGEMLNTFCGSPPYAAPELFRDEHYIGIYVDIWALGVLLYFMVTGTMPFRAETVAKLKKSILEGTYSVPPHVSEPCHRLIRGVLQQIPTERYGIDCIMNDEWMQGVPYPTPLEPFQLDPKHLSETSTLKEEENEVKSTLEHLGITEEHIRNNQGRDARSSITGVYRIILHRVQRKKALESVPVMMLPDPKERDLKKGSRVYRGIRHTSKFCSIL
Description: as §1

[7] = biological target: PRKCE (Homo sapiens, UniProt Q02156); experiment: KINOMEscan; details: read-out: Percent Control
Description: as §1

[8] = biological target: CDK4-cyclinD1 (Homo sapiens, UniProt P11802); experiment: KINOMEscan; details: read-out: Percent Control
Description: as §1

[9] = biological target: CIT (Homo sapiens, UniProt O14578); experiment: KINOMEscan; details: read-out: Percent Control
Description: as §1

[10] = biological target: LCK (Homo sapiens, UniProt P06239); experiment: KINOMEscan; details: read-out: Percent Control
Description: as §1

[11] = biological target: PIK4CB (Homo sapiens, UniProt Q9UBF8); experiment: KINOMEscan; details: read-out: Percent Control
Description: as §1

[12] = biological target: MST1 (Homo sapiens, UniProt Q13043); experiment: KINOMEscan; details: read-out: Percent Control
Description: as §1

[13] = biological target: IRAK4 (Homo sapiens, UniProt Q9NWZ3); experiment: KINOMEscan; details: read-out: Percent Control
Chain of IRAK4 (Q9NWZ3 whole entry): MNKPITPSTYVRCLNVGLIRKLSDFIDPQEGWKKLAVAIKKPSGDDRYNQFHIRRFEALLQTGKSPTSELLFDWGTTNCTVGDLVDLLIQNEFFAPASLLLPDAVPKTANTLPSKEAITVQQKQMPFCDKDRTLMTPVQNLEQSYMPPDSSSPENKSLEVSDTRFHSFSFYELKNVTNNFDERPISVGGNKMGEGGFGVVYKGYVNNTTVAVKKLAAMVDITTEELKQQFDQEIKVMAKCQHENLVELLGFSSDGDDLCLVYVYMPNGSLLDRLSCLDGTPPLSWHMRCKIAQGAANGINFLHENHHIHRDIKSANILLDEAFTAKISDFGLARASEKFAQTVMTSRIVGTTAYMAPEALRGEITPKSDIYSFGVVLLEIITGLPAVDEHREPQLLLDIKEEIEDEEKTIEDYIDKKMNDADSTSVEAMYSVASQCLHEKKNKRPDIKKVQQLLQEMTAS
Description: as §1

[14] = biological target: PIK3C2B (Homo sapiens, UniProt O00750); experiment: KINOMEscan; details: read-out: Percent Control
Description: as §1

[15] = biological target: RET(M918T) (Homo sapiens, UniProt P07949, M918T); experiment: KINOMEscan; details: read-out: Percent Control
Chain of RET(M918T) (P07949 29-1114 M918T): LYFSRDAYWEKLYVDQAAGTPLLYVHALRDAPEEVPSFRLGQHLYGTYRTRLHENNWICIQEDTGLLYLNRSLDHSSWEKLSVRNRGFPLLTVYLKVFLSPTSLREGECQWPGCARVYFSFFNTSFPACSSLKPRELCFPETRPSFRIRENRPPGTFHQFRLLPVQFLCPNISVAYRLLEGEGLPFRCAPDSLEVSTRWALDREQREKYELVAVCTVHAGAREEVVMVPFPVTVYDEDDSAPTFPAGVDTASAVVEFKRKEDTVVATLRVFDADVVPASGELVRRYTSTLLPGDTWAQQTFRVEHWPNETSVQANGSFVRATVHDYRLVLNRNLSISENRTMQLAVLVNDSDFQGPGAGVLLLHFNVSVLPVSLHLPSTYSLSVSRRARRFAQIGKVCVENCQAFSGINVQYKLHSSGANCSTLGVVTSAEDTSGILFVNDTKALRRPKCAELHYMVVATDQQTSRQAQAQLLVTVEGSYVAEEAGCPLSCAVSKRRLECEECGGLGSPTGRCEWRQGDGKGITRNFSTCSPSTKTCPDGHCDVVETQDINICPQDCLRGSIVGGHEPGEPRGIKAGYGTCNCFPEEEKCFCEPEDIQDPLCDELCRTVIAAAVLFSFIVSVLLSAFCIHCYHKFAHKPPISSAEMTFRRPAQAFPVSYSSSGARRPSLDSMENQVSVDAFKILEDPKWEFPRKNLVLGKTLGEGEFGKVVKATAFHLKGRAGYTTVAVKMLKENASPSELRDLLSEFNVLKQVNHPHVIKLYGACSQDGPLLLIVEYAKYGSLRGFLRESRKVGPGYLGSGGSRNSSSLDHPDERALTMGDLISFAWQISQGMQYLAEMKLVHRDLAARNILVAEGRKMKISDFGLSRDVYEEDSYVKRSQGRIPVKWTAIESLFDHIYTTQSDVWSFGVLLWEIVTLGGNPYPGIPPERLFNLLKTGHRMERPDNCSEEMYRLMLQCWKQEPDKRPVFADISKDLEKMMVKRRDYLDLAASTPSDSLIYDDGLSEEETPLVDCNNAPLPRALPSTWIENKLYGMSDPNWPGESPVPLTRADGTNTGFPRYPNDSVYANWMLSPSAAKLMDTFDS
Description: as §1

[16] = biological target: FLT3(D835H) (Homo sapiens, UniProt P36888, D835H); experiment: KINOMEscan; details: read-out: Percent Control
Description: as §1

[17] = biological target: MAP4K5 (Homo sapiens, UniProt Q9Y4K4); experiment: KINOMEscan; details: read-out: Percent Control
Description: as §1

[18] = biological target: TYRO3 (Homo sapiens, UniProt Q06418); experiment: KINOMEscan; details: read-out: Percent Control
Description: as §1

[19] = biological target: WEE2 (Homo sapiens, UniProt P0C1S8); experiment: KINOMEscan; details: read-out: Percent Control
Description: as §1

[20] = biological target: RSK2(Kin.Dom.1-N-terminal) (Homo sapiens, UniProt P51812); experiment: KINOMEscan; details: read-out: Percent Control
Chain of RSK2(Kin.Dom.1-N-terminal) (P51812 68-327 limits assumed): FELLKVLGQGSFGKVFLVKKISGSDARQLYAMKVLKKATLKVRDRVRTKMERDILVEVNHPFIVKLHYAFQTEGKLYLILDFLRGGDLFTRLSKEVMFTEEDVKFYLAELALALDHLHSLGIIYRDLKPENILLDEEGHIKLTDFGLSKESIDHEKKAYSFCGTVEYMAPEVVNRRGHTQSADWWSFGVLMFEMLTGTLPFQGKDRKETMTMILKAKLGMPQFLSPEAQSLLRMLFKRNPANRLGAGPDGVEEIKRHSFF
Description: as §1

[21] = biological target: TLK2 (Homo sapiens, UniProt Q86UE8); experiment: KINOMEscan; details: read-out: Percent Control
Chain of TLK2 (Q86UE8 whole entry): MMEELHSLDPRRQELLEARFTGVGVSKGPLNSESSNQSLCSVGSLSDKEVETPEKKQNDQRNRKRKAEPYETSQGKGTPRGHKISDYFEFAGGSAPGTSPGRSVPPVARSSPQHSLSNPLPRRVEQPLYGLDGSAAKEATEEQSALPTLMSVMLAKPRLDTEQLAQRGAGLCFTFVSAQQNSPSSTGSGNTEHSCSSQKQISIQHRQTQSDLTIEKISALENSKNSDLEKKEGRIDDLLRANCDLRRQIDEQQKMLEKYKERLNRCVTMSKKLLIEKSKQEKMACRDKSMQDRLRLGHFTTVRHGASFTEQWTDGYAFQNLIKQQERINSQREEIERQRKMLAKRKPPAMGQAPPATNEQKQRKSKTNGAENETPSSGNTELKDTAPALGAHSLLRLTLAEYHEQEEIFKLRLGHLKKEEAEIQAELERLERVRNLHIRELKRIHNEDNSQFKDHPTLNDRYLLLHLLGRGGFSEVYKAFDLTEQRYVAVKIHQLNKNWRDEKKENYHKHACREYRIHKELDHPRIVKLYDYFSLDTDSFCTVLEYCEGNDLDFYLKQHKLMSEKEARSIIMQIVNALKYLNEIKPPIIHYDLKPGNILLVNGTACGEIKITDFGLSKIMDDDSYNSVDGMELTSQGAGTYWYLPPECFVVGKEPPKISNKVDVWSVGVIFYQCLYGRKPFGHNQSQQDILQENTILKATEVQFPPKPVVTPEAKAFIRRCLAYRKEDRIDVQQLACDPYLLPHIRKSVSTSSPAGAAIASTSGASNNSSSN
Description: as §1

[22] = biological target: EPHA4 (Homo sapiens, UniProt P54764); experiment: KINOMEscan; details: read-out: Percent Control
Description: as §1

[23] = biological target: ERK1 (Homo sapiens, UniProt P27361); experiment: KINOMEscan; details: read-out: Percent Control
Chain of ERK1 (P27361 whole entry): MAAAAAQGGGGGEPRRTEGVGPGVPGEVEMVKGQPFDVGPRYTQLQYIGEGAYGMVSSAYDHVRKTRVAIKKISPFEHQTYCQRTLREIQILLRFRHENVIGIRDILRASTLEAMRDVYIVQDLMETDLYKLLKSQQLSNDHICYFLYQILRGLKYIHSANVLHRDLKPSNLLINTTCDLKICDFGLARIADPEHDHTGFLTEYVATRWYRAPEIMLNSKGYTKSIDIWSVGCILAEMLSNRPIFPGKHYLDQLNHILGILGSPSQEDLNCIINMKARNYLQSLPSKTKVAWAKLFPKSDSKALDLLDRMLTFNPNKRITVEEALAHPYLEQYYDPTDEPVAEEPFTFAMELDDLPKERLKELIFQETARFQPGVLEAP
Description: as §1

[24] = biological target: CLK3 (Homo sapiens, UniProt P49761); experiment: KINOMEscan; details: read-out: Percent Control
Description: as §1

[25] = biological target: SIK2 (Homo sapiens, UniProt Q9H0K1); experiment: KINOMEscan; details: read-out: Percent Control
Chain of SIK2 (Q9H0K1 whole entry): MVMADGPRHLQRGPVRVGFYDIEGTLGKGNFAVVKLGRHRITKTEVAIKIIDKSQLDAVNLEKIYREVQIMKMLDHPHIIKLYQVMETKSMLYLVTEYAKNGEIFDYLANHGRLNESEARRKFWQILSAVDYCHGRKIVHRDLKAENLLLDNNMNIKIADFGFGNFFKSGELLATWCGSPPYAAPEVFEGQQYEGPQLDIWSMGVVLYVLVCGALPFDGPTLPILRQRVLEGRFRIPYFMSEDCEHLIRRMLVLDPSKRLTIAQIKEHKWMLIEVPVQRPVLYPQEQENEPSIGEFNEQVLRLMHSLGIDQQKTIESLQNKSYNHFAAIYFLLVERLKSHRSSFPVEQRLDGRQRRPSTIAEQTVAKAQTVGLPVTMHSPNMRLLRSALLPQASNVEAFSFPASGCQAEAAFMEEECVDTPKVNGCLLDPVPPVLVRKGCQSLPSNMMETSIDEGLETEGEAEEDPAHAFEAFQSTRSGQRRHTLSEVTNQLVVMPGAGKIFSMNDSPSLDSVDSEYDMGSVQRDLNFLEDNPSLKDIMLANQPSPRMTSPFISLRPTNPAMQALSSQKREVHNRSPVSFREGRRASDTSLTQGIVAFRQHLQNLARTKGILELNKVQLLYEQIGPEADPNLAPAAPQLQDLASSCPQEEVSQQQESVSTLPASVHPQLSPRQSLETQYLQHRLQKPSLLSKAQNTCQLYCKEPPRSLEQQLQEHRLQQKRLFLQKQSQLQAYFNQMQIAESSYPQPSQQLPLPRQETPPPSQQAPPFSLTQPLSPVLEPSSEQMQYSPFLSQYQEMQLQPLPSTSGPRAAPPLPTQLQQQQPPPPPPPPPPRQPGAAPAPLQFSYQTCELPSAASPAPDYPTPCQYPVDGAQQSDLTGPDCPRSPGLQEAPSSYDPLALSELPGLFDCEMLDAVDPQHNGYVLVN
Description: as §1

For `O=C1CCC(N2C(=O)c3cccc(NCCCCCCCCNC(=O)N4CC[C@H](NC5=Nc6cc(F)ccc6N(CC(F)F)c6ccc(Cl)cc65)C4)c3C2=O)C(=O)N1` (stereo partly drawn) [BJG-05-039, (3S)-3-((2-Chloro-5-(2,2-difluoroethyl)-8-fluoro-5H-dibenzo[b,e][1,4]diazepin-11-yl)amino)-N-(8-((2-(2,6-dioxopiperidin-3-yl)-1,3-dioxoisoindolin-4-yl)amino)octyl)pyrrolidine-1-carboxamide], the remaining binding at 10 µM [1] was 89%, the remaining binding at 10 µM [2] was 90% and the PAK2 degradation [3] was “not PAK2”. For the same molecule, the remaining binding at 10 µM [4] was 86%, the remaining binding at 10 µM [5] was 87% and the remaining binding at 10 µM [6] was 89%. For the same molecule, the remaining binding at 10 µM [7] was 100%, the remaining binding at 10 µM [8] was 90% and the remaining binding at 10 µM [9] was 94%. For the same molecule, the remaining binding at 10 µM [10] was 91%, the remaining binding at 10 µM [11] was 78% and the remaining binding at 10 µM [12] was 90%. The remaining binding at 10 µM [13] was 100%, the remaining binding at 10 µM [14] was 90% and the remaining binding at 10 µM [15] was 90%. For the same molecule, the remaining binding at 10 µM [16] was 83%, the remaining binding at 10 µM [17] was 59% and the remaining binding at 10 µM [18] was 72%. For the same molecule, the remaining binding at 10 µM [19] was 78%, the remaining binding at 10 µM [20] was 82% and the remaining binding at 10 µM [21] was 80%. It also gave a remaining binding at 10 µM [22] of 82%, a remaining binding at 10 µM [23] of 83% and a remaining binding at 10 µM [24] of 62%. For the same molecule, the remaining binding at 10 µM [25] was 97%.
